As usually defined, the IC50 is the concentration that gives 50% inhibition.

The structures appear in SMILES notation. Where two headings read alike, the source gives them in different places.

For one experiment, the target named is B-Raf (V600E) (Homo sapiens (Human), UniProt P15056, V600E). The experiment is described as follows: Raf IC50 assay, time-resolved fluorescence energy transfer, B-Raf (V600E). Type of experiment: biochemical. As to conditions: 0.1 mM ATP; read-out: IC50 (nM) B_Raf^V600E.
Another experiment concerns the target C-Raf (Y340D/Y341D) (Homo sapiens (Human), UniProt P04049, Y340D/Y341D). The experiment in a line: Raf IC50 assay, time-resolved fluorescence energy transfer, C-Raf (Y340D/Y341D). Type of experiment: biochemical. As to conditions: 0.1 mM ATP.
For another experiment, the target named is wild type B-Raf (Homo sapiens (Human), UniProt P15056). The experiment in a line: WT B-Raf IC50 assay, time-resolved fluorescence energy transfer. Type of experiment: biochemical. On the procedure:
The IC50 for each compound was calculated by non linear regression by Graphpad Prism software.

The test system of the next experiment is p61-A375 (pERK). The experiment in a line: ERK phosphorylation inhibition IC50 assay in p61-A375. As to conditions: 1 hour compound treatment. It counts as cell-based. On the procedure: (§1) To express p61 in mammalian cells, cDNA encoding the p61 (Poulikakos et al., Nature. 2011 Nov. 23; 480(7377):387-90) was synthesized by Genscript and cloned into pLVX-IRES-Puro vector (Clontech). The cDNA was a modified form of p61 in which sequencing encoding the flag-epitope had been inserted to the C-terminus, resulting in the expression of flag-tagged forms of protein. A375 cells were stably transfected with the Flag-p61 expressing plasmid and selected with DMEM containing […] puromycin (Invitrogen). Cells were cloned by limiting dilution in a 96-wells plate and the clones screened by western blot analysis using a monoclonal antibody directed against the flag-epitope.
(§2) Growth medium was then replaced with 100 μL of serum free DMEM, cells were then treated with a 10-point titration of compounds disclosed herein. After 1 hour compound treatment, 50 μL of lysis buffer (Cisbio) were added to each well and incubated at room temperature with shaking for 30 minutes. A total of 16 μL of cell lysate from each well of a 96-well plate was transferred to a 384-well small volume white plate. Lysate from each well was incubated with 2 μL of Eu^3+-cryptate (donor) labeled anti-ERK antibody (Cisbio) and 2 μL of D2 (acceptor) labeled anti-phospho-ERK antibody (Cisbio) for 2 hours at room temperature. When donor and acceptor are in close proximity, excitation of the donor with laser triggers a Fluorescence Resonance Energy Transfer (FRET) towards the acceptor, which in turn fluoresces at 655 nm wavelength. Fluorescence values were measured using a BMG reader.
(§3) IC50 values for ERK inhibition were calculated by fitting dose-dependent data to the four-parameter logistic model using GraphPad Prism software.

Another experiment deals with A375. The experiment in a line: Anti-proliferative activity EC50 assay (CellTiter-Glo) in A375. The note with it: Homo sapiens, A-375, 72 h; 3-day exposure; read-out: Cell Proliferation EC50 (nM) A375. Type of experiment: cell-based. Summed up:
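CellTiter-Glo luminescence (ATP) after 2,000 cells/well attached 16 h, then 3-day exposure to a 10-point dilution series in duplicate. EC50 from four-parameter logistic fit of dose-response data.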
Background: In ATP-based viability assays light output follows the ATP content of the culture.

The next experiment has as its system p61-A375. The experiment in a line: Anti-proliferative activity EC50 assay (CellTiter-Glo) in p61-A375. It counts as cell-based. As to conditions: 72 h; 3-day exposure; read-out: Cell Proliferation EC50 (nM) p61-A375. As for the experimental part: as §1
The growth-inhibitory activity of compounds in A375 and p61-A375, was determined using CellTiter-Glo luminescent cell viability assay (Promega). The 2,000 cells were seeded per well of a 96-well plate to ensure logarithmic growth could occur over the 3 days treatment period. Cells were left to attach for 16 hours, cells were treated in duplicate with a 10-point dilution series. Following a 3-day exposure to compounds disclosed herein, a volume of CellTiter-Glo reagent equal to the volume of cell culture medium present in each well was added. Mixture was mixed on an orbital shaker for 2 minutes to allow cell lysis, followed by 10 minutes incubation at room temperature to allow stabilization of luminescent signal, which corresponded to quantitation of ATP and thus the quantitation of metabolically active cells. Luminescent signal was measured using Pherastar FS reader (BMG Labtech).
EC50 values for growth inhibition were calculated by fitting dose-dependent data to the four-parameter logistic model using GraphPad Prism software.

In another experiment the test system is Calu-6 (pERK). The experiment in a line: ERK phosphorylation inhibition IC50 assay in Calu-6. Type of experiment: cell-based. The note with it: Homo sapiens, 1 hour compound treatment. On the procedure: as §2, §3
The next experiment deals with HeLa (pERK). The experiment in a line: ERK phosphorylation inhibition IC50 assay in HeLa. Type of experiment: cell-based. As to conditions: Homo sapiens, 1 hour compound treatment. On the procedure:
as §2, §3

Chain of wild type B-Raf (P15056 whole entry): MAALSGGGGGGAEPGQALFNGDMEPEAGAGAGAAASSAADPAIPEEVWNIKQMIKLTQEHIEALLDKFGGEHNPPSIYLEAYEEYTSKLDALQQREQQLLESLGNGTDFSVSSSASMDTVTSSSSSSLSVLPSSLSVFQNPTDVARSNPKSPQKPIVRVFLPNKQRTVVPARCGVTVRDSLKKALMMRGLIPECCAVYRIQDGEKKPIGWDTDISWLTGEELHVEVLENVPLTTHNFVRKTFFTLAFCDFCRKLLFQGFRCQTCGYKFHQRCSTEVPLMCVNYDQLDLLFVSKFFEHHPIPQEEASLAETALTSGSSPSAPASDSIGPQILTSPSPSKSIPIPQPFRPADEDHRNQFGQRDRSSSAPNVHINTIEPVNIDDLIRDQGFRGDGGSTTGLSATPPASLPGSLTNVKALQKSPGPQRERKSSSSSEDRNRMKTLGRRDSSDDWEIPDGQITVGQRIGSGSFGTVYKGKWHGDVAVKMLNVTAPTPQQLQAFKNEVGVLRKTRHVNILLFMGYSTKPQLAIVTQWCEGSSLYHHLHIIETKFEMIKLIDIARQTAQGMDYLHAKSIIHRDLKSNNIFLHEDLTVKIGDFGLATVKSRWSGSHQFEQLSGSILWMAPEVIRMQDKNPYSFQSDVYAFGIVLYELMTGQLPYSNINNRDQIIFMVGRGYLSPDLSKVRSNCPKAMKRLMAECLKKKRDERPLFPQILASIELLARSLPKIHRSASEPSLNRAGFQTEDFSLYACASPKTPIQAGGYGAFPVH
Chain of C-Raf (Y340D/Y341D) (P04049 whole entry Y340D/Y341D): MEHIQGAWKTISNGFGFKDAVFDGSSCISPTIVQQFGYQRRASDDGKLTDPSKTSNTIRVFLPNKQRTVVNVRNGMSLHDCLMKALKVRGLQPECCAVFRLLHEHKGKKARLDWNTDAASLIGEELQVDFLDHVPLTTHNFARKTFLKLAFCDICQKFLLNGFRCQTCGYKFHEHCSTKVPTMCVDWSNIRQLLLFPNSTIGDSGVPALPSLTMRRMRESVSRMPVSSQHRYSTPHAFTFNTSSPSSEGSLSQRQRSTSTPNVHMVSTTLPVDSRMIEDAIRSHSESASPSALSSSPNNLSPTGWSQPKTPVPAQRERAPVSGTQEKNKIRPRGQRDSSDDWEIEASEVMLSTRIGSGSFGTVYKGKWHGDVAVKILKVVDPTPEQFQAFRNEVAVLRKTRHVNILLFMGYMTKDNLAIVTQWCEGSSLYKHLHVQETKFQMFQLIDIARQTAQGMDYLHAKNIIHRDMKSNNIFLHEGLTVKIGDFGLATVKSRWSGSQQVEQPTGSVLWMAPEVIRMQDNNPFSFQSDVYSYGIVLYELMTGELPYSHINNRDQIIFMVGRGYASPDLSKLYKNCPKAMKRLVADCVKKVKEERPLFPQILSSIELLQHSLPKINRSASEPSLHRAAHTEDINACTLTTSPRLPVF
Chain of B-Raf (V600E) (P15056 whole entry V600E): as the sequence (P15056 whole entry) above, with V600E counted along it

Turning to `O=C1CCc2c(Oc3ccc4c(c3)[C@H]3[C@H](NC(=O)Nc5cc(F)c(F)cc5F)[C@H]3O4)ccnc2N1` [Compound 1.49], the IC50 on B-Raf (V600E) was found to be 1.2 nM; at C-Raf (Y340D/Y341D), 0.19 nM; on wild type B-Raf (2.5 mM ATP, read-out: IC50 (nM) B-Raf^WT 2.5 mM ATP) it was 7.9 nM; at wild type B-Raf (Km ATP (2.9 μM ATP), read-out: IC50 (nM) B-Raf^WT Km ATP), 2.5 nM; with p61-A375 (pERK), 153 nM; with Calu-6 (pERK), 112 nM. The IC50 in the experiment on HeLa (pERK) is 498 nM. Also, the values for the EC50 in the experiment with A375 and with p61-A375 were 17 nM and 639 nM, respectively.

The values above are taken from patent US9670203B2 (BeiGene, LTD., priority 2013, dated 2017).
